{
  "source": "paper PMC4791286",
  "about": "“Puquitinib mesylate, an inhibitor of phosphatidylinositol 3-kinase p110δ, for treating relapsed or refractory non-Hodgkin's lymphoma” (Oncotarget, 2015)",
  "key": {"[1]": {"test_system": "relapsed or refractory non-Hodgkin's lymphoma", "assay": "Phase I study, antitumor activity (response, PFS)", "type": "in vivo, human", "experimental": "This was a phase I open label, dose-escalation study whose primary objective was to characterize the safety of XC-302 in adult Chinese patients with advanced lymphoma administered on a 28-day cycle. Others were to determine the pharmacokinetics (PK) characteristics and anti-tumor activity. The anti-tumor effects of XC-302 were evaluated every 2 cycles with the Standardized Response Criteria of the National Cancer Institute International Working Group (IWG). Efficacy evaluation for CLL was on account of IWCLL criteria while for NHL, it was analyzed by IWG response criteria. Patients with stable disease or partial remission were allowed to continue therapy until progressive disease or toxicity was observed."}, "advanced solid tumors": {"test_system": "advanced solid tumors", "settings": "ref unpublished information, personal communication with Wei Mao on January 1, 2013, cited from earlier work; for Maximum tolerated dose (MTD): single agent, postprandial"}},
  "note": "Several values for one entry are separate records, joined by “and”; a condition that tells them apart may be missing. Equal entries are not always repeated. Structures can show the parent of a compound that is named as a salt. Where two headings read alike, the source gives them in different places.",
  "data": [
    {"smiles": "c1cnc2ccc(Nc3nc(NC4CC4)c4nc[nH]c4n3)cc2c1", "note": "[XC-302, Puquitinib Mesylate]", "values": [
      {"measurement": "Complete response", "setting": "[1]; 25 mg BID, n = 3", "value": 0, "unit": "n"},
      {"measurement": "Minor response", "setting": "[1]; 25 mg BID, n = 3", "value": 0, "unit": "n"},
      {"measurement": "Partial response", "setting": "[1]; 25 mg BID, n = 3", "value": 0, "unit": "n"},
      {"measurement": "Progressive disease", "setting": "[1]; 25 mg BID, n = 3", "value": 0, "unit": "n"},
      {"measurement": "Stable disease", "setting": "[1]; 25 mg BID, n = 3", "value": 3, "unit": "n"},
      {"measurement": "Complete response", "setting": "[1]; 37.5 mg BID, n = 9", "value": 0, "unit": "n"},
      {"measurement": "Minor response", "setting": "[1]; 37.5 mg BID, n = 9", "value": 0, "unit": "n"},
      {"measurement": "Partial response", "setting": "[1]; 37.5 mg BID, n = 9", "value": 0, "unit": "n"},
      {"measurement": "Progressive disease", "setting": "[1]; 37.5 mg BID, n = 9", "value": 8, "unit": "n"},
      {"measurement": "Stable disease", "setting": "[1]; 37.5 mg BID, n = 9", "value": 1, "unit": "n"},
      {"measurement": "Complete response", "setting": "[1]; 50 mg BID (n = 7)", "value": 0, "unit": "n"},
      {"measurement": "Minor response", "setting": "[1]; 50 mg BID (n = 7)", "value": 1, "unit": "n"},
      {"measurement": "Overall response rate", "setting": "[1]; 50 mg BID (n = 7)", "value": 2, "unit": "n"},
      {"measurement": "Partial response", "setting": "[1]; 50 mg BID (n = 7)", "value": 1, "unit": "n"},
      {"measurement": "Progressive disease", "setting": "[1]; 50 mg BID (n = 7)", "value": 3, "unit": "n"},
      {"measurement": "Stable disease", "setting": "[1]; 50 mg BID (n = 7)", "value": 2, "unit": "n"},
      {"measurement": "Complete response", "setting": "[1]; All (n = 21; 19 evaluable)", "value": 0, "unit": "n"},
      {"measurement": "Minor response", "setting": "[1]; All (n = 21; 19 evaluable)", "value": 1, "unit": "n"},
      {"measurement": "Overall response rate", "setting": "[1]; All (n = 21; 19 evaluable)", "value": 2, "unit": "n"},
      {"measurement": "Partial response", "setting": "[1]; All (n = 21; 19 evaluable)", "value": 1, "unit": "n"},
      {"measurement": "Progressive disease", "setting": "[1]; All (n = 21; 19 evaluable)", "value": 11, "unit": "n"},
      {"measurement": "Stable disease", "setting": "[1]; All (n = 21; 19 evaluable)", "value": 6, "unit": "n"},
      {"measurement": "Progression free survival (PFS), median (95% CI)", "setting": "[1]; all evaluable patients", "value": "1.9 (95% CI, 1.7 to 2.0) months and 1.9 months"},
      {"measurement": "Duration of response, median (range)", "setting": "[1]; printed as for all 19 patients", "value": "7.1 (6.9 to 7.3) months"},
      {"measurement": "Time to response", "setting": "[1]; the two responding patients, individual values", "value": "1.8 months and 1.84 months"},
      {"measurement": "Disease control rate", "setting": "advanced solid tumors; advanced solid tumors", "value": 52.5, "unit": "%"},
      {"measurement": "Oral bioavailability", "setting": "advanced solid tumors; clinical PK monitoring", "value": "good oral bioavailability"},
      {"measurement": "Maximum tolerated dose (MTD)", "setting": "advanced solid tumors; continuous daily schedule", "value": 75, "unit": "mg"},
      {"measurement": "Maximum tolerated dose (MTD)", "setting": "advanced solid tumors; twice daily (BID)", "value": 50, "unit": "mg"}
    ]}
  ]
}
